Test results as given in the supplement of paper PMC10627819.

Experiments:
B. subtilis 168 [1] = assay: fitness (endpoint OD595 vs no drug) (fraction); higher = more growth
Outline: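 Cultures at OD595 0.01 were dispensed into 384-well plates in TSB, LB Lennox or CY and incubated at 37 °C. Every 30 min for 14 h, OD595 was read and corrected by the first reading. Fitness is the optical density at entry into stationary phase relative to the robust mean of no-drug control wells, capped at 1.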

B. subtilis 168 [2] = assay: Bliss interaction score (quartile over a dose matrix) (fitness difference); higher = more antagonism (negative = synergy)
Outline: (§1)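 The Bliss score subtracts expected fitness, the product of the single-drug fitness values, from observed fitness. Fitness is plate-normalised OD595 at entry into stationary phase, relative to the robust no-drug mean and capped at 1, with single-drug fitness inferred from combinations. Summaries are quartiles over technical, biological and donor/recipient replicates.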

S. aureus DSM 20231 = assay: as above
Outline: as §1

S. aureus Newman = assay: as above
Outline: as §1

S. pneumoniae D39V = assay: as above
Outline: as §1
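For Bliss interaction score (quartile over a dose matrix) in this document: first quartile when negative (synergy) and third quartile when positive (antagonism).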

CC1=C(C(=O)O)N2C(=O)[C@@H](NC(=O)[C@H](N)c3ccccc3)[C@H]2SC1 [Cephalexin] + COc1cc(Cc2cnc(N)nc2N)cc(OC)c1OC [Trimethoprim]
fitness, B. subtilis 168 [1]
Details | first compound 0.125 µg/mL | first compound 0.25 µg/mL | first compound 0.5 µg/mL | first compound 1 µg/mL
partner 0.25 µg/mL | – | 0.685 | – | 0.699
partner 0.5 µg/mL | 0.445 | 0.465 | 0.517 | 0.528

fitness, B. subtilis 168 [1], one replicate
Details | partner 0.1 µg/mL | partner 0.125 µg/mL | partner 0.2 µg/mL | partner 0.4 µg/mL | partner 1 µg/mL | partner 2 µg/mL
first compound 0.125 µg/mL | – | – | – | – | 0.48 | 0.501
first compound 0.25 µg/mL | 0.915 | 0.749 | 0.791 | 0.533 | 0.402 | 0.418
first compound 0.5 µg/mL | 0.884 | 0.758 | 0.809 | 0.565 | 0.372 | 0.509
first compound 1 µg/mL | 0.879 | 0.759 | 0.86 | 0.572 | – | –

Details | Bliss interaction score
B. subtilis 168 [2] | 0.113
S. aureus DSM 20231 | -0.058
S. aureus Newman | -0.0582
S. pneumoniae D39V | 0.0759

CNC(C)C1CCC(N)C(OC2C(N)CC(N)C(OC3OCC(C)(O)C(NC)C3O)C2O)O1 (centres undefined) [Gentamicin] + CO[C@@H]1[C@@H](OC(N)=O)[C@@H](O)[C@H](Oc2ccc3c(O)c(NC(=O)c4ccc(O)c(CC=C(C)C)c4)c(=O)oc3c2C)OC1(C)C [Novobiocin]
fitness, B. subtilis 168 [1], main component drawn
Details | first compound 0.0625 µg/mL | first compound 0.125 µg/mL | first compound 0.25 µg/mL
partner 0.0125 µg/mL | 0.915 | – | 0.0845
partner 0.025 µg/mL | 0.938 | 0.692 | 0.0329
partner 0.05 µg/mL | 0.998 | 0.705 | –

fitness, B. subtilis 168 [1], one replicate, main component drawn
Details | partner 0.1 µg/mL | partner 0.125 µg/mL | partner 0.2 µg/mL | partner 0.25 µg/mL | partner 0.5 µg/mL
first compound 0.0625 µg/mL | ≥ 1 | 0.907 | ≥ 1 | 0.987 | 0.515
first compound 0.125 µg/mL | 0.946 | 0.501 | 0.978 | 0.302 | 0.111
first compound 0.25 µg/mL | 0.152 | 0.056 | 0.476 | 0.0399 | 0.0406

main component drawn
Details | Bliss interaction score
B. subtilis 168 [2] | 0.137
S. aureus DSM 20231 | -0.0708
S. aureus Newman | 0.0684
S. pneumoniae D39V | 0.0522
